# Experiments:
# [1] = molecular target: T1, 11β-HSD1 (Homo sapiens, UniProt P28845); assay: biochemical; settings: for inhibition at 0.1 µM: read-out: Average % inhibition at 100 nM
# [2] = molecular target: T1, 11β-HSD1; assay: Biological Test Example 4: microsomal 11β-HSD1 in the presence of 50% human plasma; settings: for Shift: IC50 in Test Example 4 divided by IC50 in Test Example 1
# [3] = molecular target: T2, CYP2C9 (Homo sapiens, UniProt P11712); assay: Biological Test Example 9: CYP2C9 inhibition (Invitrogen kit, fluorogenic OOMR); format: in vitro ADME
# T2 construct: purchased Invitrogen 2859; host or cells: insect cells infected with baculovirus (microsomes)
# [4] = Biological Test Example 1 IC50 (nM)
# [5] = IC50 Range, Biological Test Example 1
# T1 sequence (P28845 whole entry): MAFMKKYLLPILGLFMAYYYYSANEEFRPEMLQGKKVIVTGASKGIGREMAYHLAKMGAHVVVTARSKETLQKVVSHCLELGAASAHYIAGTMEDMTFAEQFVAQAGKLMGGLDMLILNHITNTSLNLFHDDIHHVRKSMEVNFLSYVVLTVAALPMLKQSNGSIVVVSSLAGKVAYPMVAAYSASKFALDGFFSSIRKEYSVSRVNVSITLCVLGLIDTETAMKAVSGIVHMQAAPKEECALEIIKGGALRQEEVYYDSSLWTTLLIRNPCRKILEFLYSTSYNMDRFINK
# T2 sequence (P11712 whole entry): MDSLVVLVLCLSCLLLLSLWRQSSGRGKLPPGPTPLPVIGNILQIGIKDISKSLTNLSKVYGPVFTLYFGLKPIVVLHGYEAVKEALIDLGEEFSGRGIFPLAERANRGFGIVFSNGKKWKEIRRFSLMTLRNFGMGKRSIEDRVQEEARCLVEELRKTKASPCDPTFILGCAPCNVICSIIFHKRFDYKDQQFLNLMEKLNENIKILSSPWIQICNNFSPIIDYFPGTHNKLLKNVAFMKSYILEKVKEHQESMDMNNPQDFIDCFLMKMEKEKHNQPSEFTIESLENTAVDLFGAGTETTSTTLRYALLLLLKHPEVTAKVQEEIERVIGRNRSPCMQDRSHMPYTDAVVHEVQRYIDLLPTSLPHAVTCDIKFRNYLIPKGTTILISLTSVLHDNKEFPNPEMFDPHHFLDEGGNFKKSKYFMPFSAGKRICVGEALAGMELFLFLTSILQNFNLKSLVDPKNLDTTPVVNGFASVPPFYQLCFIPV
SMILES,"IC50 [1, 4]","IC50 [1, 5]",inhibition at 0.1 µM [1],IC50 [2],Shift [2],IC50 [3]
"C[C@@H](c1ccc(-c2cccnn2)cc1)N1CC[C@](CCCO)(c2ccc(F)cc2)OC1=O [EXAMPLE 132, (R)-6-(4-fluorophenyl)-6-(3-hydroxypropyl)-3-((S)-1-(4-(pyridazin-3-yl)phenyl)ethyl)-1,3-oxazinan-2-one]",6.1 nM,< 100 nM,95.2%,18.9 nM,3.1,18300 nM
"C[C@@H](c1ccc(-c2cnc(-n3ccnc3)nc2)cc1)N1CC[C@](CC(C)(C)O)(c2ccccc2)OC1=O [EXAMPLE 14, (S)-3-((S)-1-(4-(2-(1H-imidazol-1-yl)pyrimidin-5-yl)phenyl)ethyl)-6-(2-hydroxy-2-methylpropyl)-6-phenyl-1,3-oxazinan-2-one]",0.9 nM,< 100 nM,93.4%,4.5 nM,5.0,20100 nM
"C[C@@H](c1ccc(-c2ccncn2)cc1)N1CC[C@](CCCO)(c2ccc(F)cc2)OC1=O [EXAMPLE 128, (R)-6-(4-fluorophenyl)-6-(3-hydroxypropyl)-3-((S)-1-(4-(pyrimidin-4-yl)phenyl)ethyl)-1,3-oxazinan-2-one]",1.1 nM,< 100 nM,96.5%,8.5 nM,,3300 nM
"Cc1ncc(-c2ccc([C@H](C)N3CC[C@](CCCO)(c4ccc(F)cc4)OC3=O)cc2)cn1 [EXAMPLE 137, (R)-6-(4-fluorophenyl)-6-(3-hydroxypropyl)-3-((S)-1-(4-(2-methylpyrimidin-5-yl)phenyl)ethyl)-1,3-oxazinan-2-one]",,,,,,18400 nM
"C[C@@H](c1ccc(-c2ccc(C(F)(F)F)nc2)cc1)N1CC[C@](CCCO)(c2ccc(F)cc2)OC1=O [EXAMPLE 44, (R)-6-(4-fluorophenyl)-6-(3-hydroxypropyl)-3-((S)-1-(4-(6-(trifluoromethyl)pyridin-3-yl)phenyl)ethyl)-1,3-oxazinan-2-one]",0.7 nM,< 100 nM,100%,4.2 nM,,1400 nM
"C[C@@H](c1ccc(-c2cc[nH]n2)cc1)N1CC[C@](CCCO)(c2ccccc2)OC1=O [EXAMPLE 45, (R)-3-((S)-1-(4-(1H-pyrazol-3-yl)phenyl)ethyl)-6-(3-hydroxypropyl)-6-phenyl-1,3-oxazinan-2-one]",3 nM,< 100 nM,96.7%,13.5 nM,,9000 nM
"C[C@@H](c1ccc(-c2cncnc2)cc1)N1CC[C@](CCCO)(c2ccc(F)cc2)OC1=O [EXAMPLE 129, (R)-6-(4-fluorophenyl)-6-(3-hydroxypropyl)-3-((S)-1-(4-(pyrimidin-5-yl)phenyl)ethyl)-1,3-oxazinan-2-one]",4.3 nM,< 100 nM,93.9%,17.3 nM,4.1,28300 nM
"Cc1cc(-c2ccc([C@H](C)N3CC[C@](CCCN4CCCS4(=O)=O)(c4ccccc4)OC3=O)cc2)ccn1 [EXAMPLE 106, (R)-6-(3-(1,1-dioxo-isothiazolidin-2-yl)propyl)-3-((S)-1-(4-(2-methylpyridin-4-yl)phenyl)ethyl)-6-phenyl-1,3-oxazinan-2-one]",22.7 nM,< 100 nM,79.6%,,,9500 nM
"Cc1cc(-c2ccc([C@H](C)N3CC[C@@](C)(c4ccc(F)cc4)OC3=O)cc2)ccn1 (single isomer, unassigned) [EXAMPLE 107.1]",3.2 nM,< 100 nM,95.5%,86.4 nM,26.9,2700 nM
"C[C@@H](c1ccc(-c2ncccn2)cc1)N1CC[C@](CCCO)(c2ccc(F)cc2)OC1=O [EXAMPLE 113, (R)-6-(4-fluorophenyl)-6-(3-hydroxypropyl)-3-((S)-1-(4-(pyrimidin-2-yl)phenyl)ethyl)-1,3-oxazinan-2-one]",7.4 nM,< 100 nM,92.4%,22.8 nM,3.1,2900 nM
"Cc1cc(-c2ccc([C@H](C)N3CC[C@](CCCO)(c4ccccc4)OC3=O)cc2)cc(C)n1 [EXAMPLE 133, (R)-3-((S)-1-(4-(2,6-dimethylpyridin-4-yl)phenyl)ethyl)-6-(3-hydroxypropyl)-6-phenyl-1,3-oxazinan-2-one]",,,,,,> 30000 nM
"Cc1ccc(-c2ccc([C@H](C)N3CC[C@](CCc4nnc(C)o4)(c4ccccc4)OC3=O)cc2)nn1 [EXAMPLE 12, (R)-6-(2-(5-methyl-1,3,4-oxadiazol-2-yl)ethyl)-3-((S)-1-(4-(6-methylpyridazin-3-yl)phenyl)ethyl)-6-phenyl-1,3-oxazinan-2-one]",,,,,,4000 nM
"C[C@@H](c1ccc(-c2cccnc2)cc1)N1CC[C@](CCNS(C)(=O)=O)(c2ccccc2)OC1=O [EXAMPLE 55, N-(2-((S)-2-oxo-6-phenyl-3-((S)-1-(4-(pyridin-3-yl)phenyl)ethyl)-1,3-oxazinan-6-yl)ethyl)methanesulfonamide]",,,96.5%,,,14100 nM
"Cc1nnc(CC[C@]2(c3ccccc3)CCN([C@@H](C)c3ccc(-c4ccc(C#N)cn4)cc3)C(=O)O2)s1 [EXAMPLE 146, 6-(4-((S)-1-((R)-6-(2-(5-methyl-1,3,4-thiadiazol-2-yl)ethyl)-2-oxo-6-phenyl-1,3-oxazinan-3-yl)ethyl)phenyl)nicotinonitrile]",17.4 nM,< 100 nM,78.9%,,,6100 nM
"Cc1nnc(CC[C@]2(c3ccccc3)CCN([C@@H](C)c3ccc(-c4ccc(C#N)cn4)cc3)C(=O)O2)o1 [EXAMPLE 145, 6-(4-((S)-1-((R)-6-(2-(5-methyl-1,3,4-oxadiazol-2-yl)ethyl)-2-oxo-6-phenyl-1,3-oxazinan-3-yl)ethyl)phenyl)nicotinonitrile]",32.8 nM,< 100 nM,72.4%,,,> 30000 nM
"Cc1cc(-c2ccc([C@H](C)N3CC[C@](CCN4CCCS4(=O)=O)(c4ccccc4)OC3=O)cc2)ccn1 [EXAMPLE 105, (S)-6-(2-(1,1-dioxo-isothiazolidin-2-yl)ethyl)-3-((S)-1-(4-(2-methylpyridin-4-yl)phenyl)ethyl)-6-phenyl-1,3-oxazinan-2-one]",19.2 nM,< 100 nM,86.3%,,,2500 nM

# The next lines start with the values.
"IC50 [1, 4]","IC50 [1, 5]",inhibition at 0.1 µM [1],IC50 [2],Shift [2],IC50 [3],SMILES
0.5 nM,< 100 nM,98.7%,5 nM,11.0,4500 nM,"COc1ccc(-c2ccc([C@H](C)N3CC[C@](CCCNS(C)(=O)=O)(c4ccccc4)OC3=O)cc2)cn1 [EXAMPLE 94, N-(3-((R)-3-((S)-1-(4-(6-methoxypyridin-3-yl)phenyl)ethyl)-2-oxo-6-phenyl-1,3-oxazinan-6-yl)propyl)methanesulfonamide]"
,,,,,5100 nM,"C[C@@H](c1ccc(-c2cccnc2)cc1)N1CC[C@](CCO)(c2ccccc2)OC1=O [EXAMPLE 34, (S)-6-(2-hydroxyethyl)-6-phenyl-3-((S)-1-(4-(pyridin-3-yl)phenyl)ethyl)-1,3-oxazinan-2-one]"
0.5 nM,< 100 nM,95.2%,,,6100 nM,"C[C@@H](c1ccc(-c2ccc(F)cn2)cc1)N1CC[C@](CCCO)(c2ccccc2)OC1=O [EXAMPLE 112, (R)-3-((S)-1-(4-(5-fluoropyridin-2-yl)phenyl)ethyl)-6-(3-hydroxpropyl)-6-Phenyl-1,3-oxazinan-2-one]"
1.1 nM,< 100 nM,98.7%,6.8 nM,6.4,20600 nM,"C[C@@H](c1ccc(-c2ccc(C(N)=O)cn2)cc1)N1CC[C@](CCCO)(c2ccccc2)OC1=O [EXAMPLE 140, 6-(4-((S)-1-((R)-6-(3-hydroxypropyl)-2-oxo-6-phenyl-1,3-oxazinan-3-yl)ethyl)phenyl)nicotinamide]"
0.6 nM,< 100 nM,98.6%,6.8 nM,12.3,4300 nM,"C[C@@H](c1ccc(-c2ccnc(N)c2)cc1)N1CC[C@](CCCO)(c2ccccc2)OC1=O [EXAMPLE 125, (R)-3-((S)-1-(4-(2-aminopyridin-4-yl)phenyl)ethyl)-6-(3-hydroxypropyl)-6-phenyl-1,3-oxazinan-2-one]"
,,,,,5200 nM,"C[C@@H](c1ccc(-c2cccnc2)cc1)N1CC[C@](CCCO)(c2ccccc2)OC1=O [EXAMPLE 36, (R)-6-(3-hydroxypropyl)-6-phenyl-3-((S)-1-(4-(pyridin-3-yl)phenyl)ethyl)-1,3-oxazinan-2-one]"
,,,,,2200 nM,"C[C@@H](c1ccc(-c2ccncc2)cc1)N1CC[C@](CCCO)(c2ccccc2)OC1=O [EXAMPLE 35, (R)-6-(3-hydroxypropyl)-6-phenyl-3-((S)-1-(4-(pyridin-4-yl)phenyl)ethyl)-1,3-oxazinan-2-one]"
,,,,,2400 nM,"C[C@@H](c1ccc(-c2ccc(N)nc2)cc1)N1CC[C@](CCCO)(c2ccccc2)OC1=O [EXAMPLE 95, (R)-3-((S)-1-(4-(6-aminopyridin-3-yl)phenyl)ethyl)-6-(3-hydroxypropyl)-6-phenyl-1,3-oxazinan-2-one]"
,,,,,10000 nM,"COc1ccc(-c2ccc([C@H](C)N3CC[C@](CCCO)(c4ccccc4)OC3=O)cc2)cn1 [EXAMPLE 40, (R)-6-(3-hydroxypropyl)-3-((S)-1-(4-(6-methoxypyridin-3-yl)phenyl)ethyl)-6-phenyl-1,3-oxazinan-2-one]"
,,,,,8400 nM,"C[C@@H](c1ccc(-c2cncc(F)c2)cc1)N1CC[C@](CCCO)(c2ccccc2)OC1=O [EXAMPLE 49, (R)-3-((S)-1-(4-(5-fluoropyridin-3-yl)phenyl)ethyl)-6-(3-hydroxypropyl)-6-phenyl-1,3-oxazinan-2-one]"
,,,,,> 30000 nM,"C[C@@H](c1ccc(-c2ccc[n+]([O-])c2)cc1)N1CC[C@](CCCO)(c2ccccc2)OC1=O [EXAMPLE 38, 3-(4-((S)-1-((R)-6-(3-hydroxypropyl)-2-oxo-6-phenyl-1,3-oxazinan-3-yl)ethyl)phenyl)pyridine 1-oxide]"

# Source: patent publication US8569292B2, “Cyclic inhibitors of 11β-hydroxysteroid dehydrogenase 1” (Vitae Pharmaceuticals, Inc., priority 2008, dated 2013)
